PubChem BioAssay AID1918955 (Molecular Pharmacology Branch, DTP, NCI, 2023)

System: NCI/ADR-RES complex spheroid viability
Experiment: Anticancer human tumor NCI/ADR-RES cell line growth inhibition;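 also: spheroids exposed to compounds for 7 days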;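 as to viability, T/C: 100% = DMSO vehicle treated spheroids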
Conditions: for IC50: curve of first compound; for viability, T/C: stronger effect = lower value
In short: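 Drug combinations with the LSD1 inhibitor iadademstat tested on tumor cells co-cultured as spheroids with endothelial cells and mesenchymal stem cells. Concentrations descended in half-log increments from clinical Cmax or 10 microM.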

Work on `CC(C)c1c(-c2ccccc2)nc2c(C#N)c[nH]n2c1=O` + NC1CCC(NC2CC2c2ccccc2)CC1 yielded an IC50 (second compound 0.1 µM) greater than 10 µM, an IC50 (second compound 0.316 µM) greater than 10 µM and an IC50 (second compound 1 µM) greater than 10 µM. The IC50 (second compound 3.16 µM) was greater than 10 µM, the IC50 (second compound 10 µM) was greater than 10 µM and the viability, T/C (second compound 0.1 µM, first compound 0.0316 µM) was 102%. The viability, T/C (second compound 0.1 µM, first compound 0.1 µM) was 111%, the viability, T/C (second compound 0.1 µM, first compound 0.316 µM) was 109% and the viability, T/C (second compound 0.1 µM, first compound 1 µM) was 100%. It also gave a viability, T/C (second compound 0.1 µM, first compound 3.16 µM) of 99.1%, a viability, T/C (second compound 0.1 µM, first compound 10 µM) of 105% and a viability, T/C (second compound 0.316 µM, first compound 0.0316 µM) of 102%. The viability, T/C (second compound 0.316 µM, first compound 0.1 µM) was 112%, the viability, T/C (second compound 0.316 µM, first compound 0.316 µM) was 105% and the viability, T/C (second compound 0.316 µM, first compound 1 µM) was 113%. It also gave a viability, T/C (second compound 0.316 µM, first compound 3.16 µM) of 103%, a viability, T/C (second compound 0.316 µM, first compound 10 µM) of 98.4% and a viability, T/C (second compound 1 µM, first compound 0.0316 µM) of 108%. For the same molecule, the viability, T/C (second compound 1 µM, first compound 0.1 µM) was 111%, the viability, T/C (second compound 1 µM, first compound 0.316 µM) was 110% and the viability, T/C (second compound 1 µM, first compound 1 µM) was 107%. The viability, T/C (second compound 1 µM, first compound 3.16 µM) was 104%, the viability, T/C (second compound 1 µM, first compound 10 µM) was 104% and the viability, T/C (second compound 3.16 µM, first compound 0.0316 µM) was 105%. For the same molecule, the viability, T/C (second compound 3.16 µM, first compound 0.1 µM) was 104%, the viability, T/C (second compound 3.16 µM, first compound 0.316 µM) was 108% and the viability, T/C (second compound 3.16 µM, first compound 1 µM) was 107%. The viability, T/C (second compound 3.16 µM, first compound 3.16 µM) was 105%, the viability, T/C (second compound 3.16 µM, first compound 10 µM) was 97.3% and the viability, T/C (second compound 10 µM, first compound 0.0316 µM) was 105%. It also gave a viability, T/C (second compound 10 µM, first compound 0.1 µM) of 98.9%, a viability, T/C (second compound 10 µM, first compound 0.316 µM) of 98.6% and a viability, T/C (second compound 10 µM, first compound 1 µM) of 97.5%. It also gave a viability, T/C (second compound 10 µM, first compound 3.16 µM) of 97.1% and a viability, T/C (second compound 10 µM, first compound 10 µM) of 91.5%.
